Experiment [1] relates to HCT-116. Kind of experiment: Antiproliferative activity against human HCT-116 cells assessed as inhibition of cell growth upto 100 uM measured after 48 hrs by resazurin staining based analysis. Format: functional.
In experiment [2] the test system is MCF7. Put plainly: Antiproliferative activity against human MCF7 cells assessed as inhibition of cell growth upto 100 uM measured after 48 hrs by resazurin staining based analysis. The experiment is classed as functional. For orientation: Resazurin is reduced to fluorescent resorufin, in cell work by metabolically active cells.
In experiment [3] the test system is PC-3. Put plainly: Antiproliferative activity against human PC-3 cells assessed as inhibition of cell growth upto 100 uM measured after 48 hrs by resazurin staining based analysis. The experiment is classed as functional.
Experiment [4] concerns HCT-116. Put plainly: Antiproliferative activity against human HCT-116 cells assessed as inhibition of cell growth measured after 48 hrs by resazurin staining based analysis. The experiment is classed as functional. Particulars: HCT-116, 48 h.
In experiment [5] the target is T1, 5-hydroxytryptamine receptor 2A (Homo sapiens, UniProt P28223). Put plainly: Agonist activity at N-terminal HA-tagged human 5HT2A receptor transfected in CHO-K1 cells co-expressing C-terminal EYFP assessed as maximal efficacy at 10^-11 M to 10^-5 M measured for 5.5 hrs by ONE-Glo reagent based luciferase assay relative to control. The experiment is classed as functional, cell-based.

For experiment [6], the system named is PC-3. Kind of experiment: Antiproliferative activity against human PC-3 cells assessed as inhibition of cell growth at 100 uM measured after 48 hrs by resazurin staining based analysis. The experiment is classed as functional. On the set-up: scale not given: the % may be the effect or the level left.
Experiment [7] concerns the target T1, 5-hydroxytryptamine receptor 2A. Put plainly: Agonist activity at N-terminal HA-tagged human 5HT2A receptor transfected in CHO-K1 cells co-expressing C-terminal EYFP measured for 5.5 hrs in presence of serotonin by ONE-Glo reagent based luciferase assay. Format: functional, cell-based.
For experiment [8] the target is unchanged. Put plainly: Agonist activity at N-terminal HA-tagged human 5HT2A receptor transfected in CHO-K1 cells co-expressing C-terminal EYFP assessed as maximal efficacy at 10^-4 M measured for 5.5 hrs in presence of serotonin by ONE-Glo reagent based luciferase assay. The conditions noted are these: filed as agonist, dose 0.0001 M. Format: functional, cell-based.

For experiment [9] the target is unchanged. Kind of experiment: Agonist activity at N-terminal HA-tagged human 5HT2A receptor transfected in CHO-K1 cells co-expressing C-terminal EYFP measured for 5.5 hrs by ONE-Glo reagent based luciferase assay. The experiment is classed as functional, cell-based.
Experiment [10] deals with PC-3. Kind of experiment: Antiproliferative activity against human PC-3 cells assessed as inhibition of cell growth measured after 48 hrs by resazurin staining based analysis. Format: functional. The conditions noted are these: PC-3, 48 h.
Experiment [11] relates to MCF7. Kind of experiment: Antiproliferative activity against human MCF7 cells assessed as inhibition of cell growth measured after 48 hrs by resazurin staining based analysis. The experiment is classed as functional. Particulars: MCF7, 48 h.

Structures are written as SMILES. Calls of active or inactive are those of the source. The rule behind the calls is not given here.

T1 sequence (P28223 whole entry): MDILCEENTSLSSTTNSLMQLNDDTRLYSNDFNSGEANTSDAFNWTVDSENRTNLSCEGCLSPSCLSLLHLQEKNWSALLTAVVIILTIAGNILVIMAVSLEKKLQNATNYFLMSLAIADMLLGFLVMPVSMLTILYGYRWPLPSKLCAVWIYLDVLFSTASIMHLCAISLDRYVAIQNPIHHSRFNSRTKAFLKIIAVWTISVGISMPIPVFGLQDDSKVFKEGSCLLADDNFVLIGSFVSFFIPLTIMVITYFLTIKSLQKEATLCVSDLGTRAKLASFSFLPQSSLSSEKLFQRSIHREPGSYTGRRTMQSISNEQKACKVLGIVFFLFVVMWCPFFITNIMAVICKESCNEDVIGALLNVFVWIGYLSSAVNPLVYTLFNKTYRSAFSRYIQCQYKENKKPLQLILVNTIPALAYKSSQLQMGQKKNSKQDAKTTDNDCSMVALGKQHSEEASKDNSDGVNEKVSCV

For the compound `NCCc1c[nH]c2ccc(O)cc12`, the result in experiment [1], in experiment [2] and in experiment [3] was inactive.
With `CC1=N[C@H](C(=O)O)Cc2c[nH]c3c(O)ccc1c23`, the IC50 in [4], in experiment [10] and in [11] was above 100 µM throughout. Further, the Emax (usually the greatest response seen or fitted, relative to the assay's reference) in experiment [5] turned out to be 22%; in experiment [8], 52%. In addition, the Activity in experiment [6] is recorded as around 30%. Besides, the half-maximal effective concentration (EC50) (commonly the midpoint of the concentration-response curve) in experiment [7] was 0.0254 µM; in [9] it was above 10 µM.

Values taken from ChEMBL document CHEMBL5360586, “Purpurascenines A-C, Azepino-Indole Alkaloids from Cortinarius purpurascens: Isolation, Biosynthesis, and Activity Studies on the 5-HT2A Receptor” (J Nat Prod, 2023).
